Measurements from paper PMC2834185 (Nature chemical biology, 2010).
Entries after “also recorded” stand apart in the source; their conditions may differ.

Key:
embryonic zebrafish [1] = test: embryonic touch response; assay type: in vivo; details: touch stimulus
purified AChE = purified AChE (Homo sapiens, UniProt P22303); test: AChE activity assay in vitro; details: 10 μM
embryonic zebrafish [2] = test: photomotor response; assay type: in vivo; details: for effect on PMR latency period / effect on PMR excitation phase (motor response to the first stimulus) / effect on PMR refractory period (response to the second stimulus) / effect on motor activity in the PMR: embryonic zebrafish; for effect on PMR latency period / effect on PMR excitation phase (motor response to the first stimulus) / effect on motor activity in the PMR: light stimulus; for suppression of AzMet behavioral effects (PMR excitation): AzMet co—treated with 2—PAM and atropine; for effect on PMR refractory period (response to the second stimulus): second light pulse
MAO—B = target: T1, MAO—B (Homo sapiens, UniProt P27338); details: in vitro; warfarin at 10 μM
T1 sequence (P27338 1-520): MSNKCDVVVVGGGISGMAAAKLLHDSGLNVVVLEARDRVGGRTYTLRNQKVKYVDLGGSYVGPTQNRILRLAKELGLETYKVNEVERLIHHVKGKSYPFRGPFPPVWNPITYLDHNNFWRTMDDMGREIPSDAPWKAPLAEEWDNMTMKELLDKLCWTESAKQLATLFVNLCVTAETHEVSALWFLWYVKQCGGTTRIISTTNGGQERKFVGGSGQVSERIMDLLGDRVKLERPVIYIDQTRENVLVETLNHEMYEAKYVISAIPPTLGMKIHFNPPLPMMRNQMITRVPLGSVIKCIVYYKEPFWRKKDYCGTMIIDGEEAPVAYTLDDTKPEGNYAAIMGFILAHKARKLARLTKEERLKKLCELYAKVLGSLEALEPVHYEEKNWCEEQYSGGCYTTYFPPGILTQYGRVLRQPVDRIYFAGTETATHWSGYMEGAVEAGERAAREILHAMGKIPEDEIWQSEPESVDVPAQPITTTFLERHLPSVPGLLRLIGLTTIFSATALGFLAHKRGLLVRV

Chain of purified AChE (P22303 32-614): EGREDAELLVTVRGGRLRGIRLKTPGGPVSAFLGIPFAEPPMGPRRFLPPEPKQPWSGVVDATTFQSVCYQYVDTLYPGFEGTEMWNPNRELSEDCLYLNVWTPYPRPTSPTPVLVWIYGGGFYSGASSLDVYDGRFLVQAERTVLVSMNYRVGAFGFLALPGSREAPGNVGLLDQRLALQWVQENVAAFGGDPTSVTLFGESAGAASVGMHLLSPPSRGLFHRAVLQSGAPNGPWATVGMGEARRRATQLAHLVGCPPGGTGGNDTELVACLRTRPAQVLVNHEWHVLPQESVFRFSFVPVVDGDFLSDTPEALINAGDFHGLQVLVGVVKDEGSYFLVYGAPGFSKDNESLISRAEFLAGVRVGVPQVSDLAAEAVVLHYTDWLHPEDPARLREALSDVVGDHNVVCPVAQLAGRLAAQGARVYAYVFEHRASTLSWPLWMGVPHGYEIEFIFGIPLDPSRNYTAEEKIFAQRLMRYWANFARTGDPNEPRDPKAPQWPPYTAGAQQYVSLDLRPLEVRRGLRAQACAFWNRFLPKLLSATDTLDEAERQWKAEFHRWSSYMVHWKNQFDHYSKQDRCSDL

## O=C1c2ccccc2-c2nc3ncnn3c(-c3ccccc3Cl)c21 [STR—2]
Embryonic zebrafish [1]
  phenotype in the ETR assay: slow—to—relax (STR) phenotype
Purified AChE
  inhibition of purified AChE in vitro: did not inhibit purified AChE in vitro

## CN1CCc2cccc3c2[C@H]1Cc1ccc(O)c(O)c1-3 [apomorphine]
Embryonic zebrafish [2]
  effect on PMR latency period: lengthened the PMR latency period
Embryonic zebrafish [2]; listed as Apomorphine
  effect on PMR latency period: increases PMR latency period duration

## CN1[C@@H]2CC[C@H]1C[C@@H](OC(=O)C(CO)c1ccccc1)C2 (stereo partly drawn) [atropine]
Embryonic zebrafish [2]
  suppression of AzMet behavioral effects (PMR excitation): counteracted the behavioral effects of AzMet

## CNC(=O)Oc1ccc2c(c1)[C@]1(C)CCN(C)[C@@H]1N2C [eserine]
Embryonic zebrafish [1]
  phenotype in the ETR assay: slow—to—relax (STR) phenotype

## CCN1C[C@]2(COC)[C@H](O)C[C@H](OC)[C@@]34[C@@H]5C[C@@]6(O)[C@H](OC(=O)c7ccccc7)[C@@H]5[C@@](OC(C)=O)([C@@H]([C@H](OC)[C@H]23)[C@@H]14)[C@@H](O)[C@@H]6OC [aconitine]
Embryonic zebrafish [2]
  effect on PMR excitation phase (motor response to the first stimulus): prolongation of the PMR excitation period

## CC(C)[C@@]1(NC(=O)[C@@H]2C[C@@H]3c4cccc5[nH]cc(c45)C[C@H]3N(C)C2)O[C@@]2(O)[C@@H]3CCCN3C(=O)[C@H](Cc3ccccc3)N2C1=O [dihydroergocristine]
Embryonic zebrafish [2]
  effect on PMR latency period: prolonged latency period

## CCCN1CCO[C@@H]2c3cc(O)ccc3OC[C@H]21 [PD128907]
Embryonic zebrafish [2]
  effect on PMR latency period: prolonged latency period

## COc1ccc(C(=O)O[C@H]2CC[C@@]3(C)[C@@H]4CC[C@H]5[C@]6(O)C[C@H](O)[C@@]7(O)[C@@H](CN8C[C@@H](C)CC[C@H]8[C@@]7(C)O)[C@]6(O)C[C@@]53O[C@]24O)cc1OC [veratridine]
Embryonic zebrafish [2]
  effect on PMR excitation phase (motor response to the first stimulus): prolongation of the PMR excitation period

## C[C@]12CC[C@H]3[C@@H](CC[C@]4(O)C[C@@H](O)CC[C@]34C(=O)O)[C@@]1(O)CC[C@@H]2C1=CC(=O)OC1 [strophanthidinic acid]
Embryonic zebrafish [2]
  effect on PMR excitation phase (motor response to the first stimulus): prolongation of the PMR excitation period

## O=[N+]([O-])c1ccc2nc(N3CCNCC3)ccc2c1 [6—nitroquipazine]
Embryonic zebrafish [2]
  effect on PMR excitation phase (motor response to the first stimulus): exhibited a robust but brief motor response to the first stimulus
  effect on PMR refractory period (response to the second stimulus): also responded to the second stimulus
Embryonic zebrafish [2]; listed as 6—Nitroquipazine
  effect on PMR refractory period (response to the second stimulus): modulates the PMR refractory period

## CC(C)(C)NCC(O)c1cc(Cl)c(N)c(Cl)c1 (stereo not drawn) [clenbuterol]
Embryonic zebrafish [2]
  effect on motor activity in the PMR: elevated activity in all PMR phases

## CC(C)NCC(O)c1ccc(O)c(O)c1 (stereo not drawn) [isoproterenol]
Embryonic zebrafish [2]
  effect on motor activity in the PMR: increased motor activity throughout the PMR; also recorded: elevated activity in all PMR phases
Embryonic zebrafish [2]; listed as Isoproterenol
  effect on motor activity in the PMR: increases zebrafish motor activity

## Oc1cc2c(cc1O)[C@H]1c3ccccc3CN[C@@H]1CC2 (racemic) [dihydrexidine]
Embryonic zebrafish [2]
  effect on PMR latency period: prolonged latency period

## C[C@]12CC[C@H](O)C[C@H]1CC[C@@H]1[C@@H]2CC[C@]2(C)[C@@H](C3=CC(=O)OC3)CC[C@]12O [digitoxigenin]
Embryonic zebrafish [2]; concentrations above the active range (Supplementary Fig. 1)
  toxicity in the PMR assay: induced toxicities at higher concentrations
Embryonic zebrafish [2]
  effect on PMR excitation phase (motor response to the first stimulus): caused a vigorous and prolonged motor response to the stimulus; also recorded: prolongation of the PMR excitation period
Embryonic zebrafish [2]; listed as Digitoxigenin
  effect on PMR excitation phase (motor response to the first stimulus): prolongs duration of the PMR excitation phase

## CNC[C@H](O)c1ccc(O)c(O)c1 [epinephrine]
Embryonic zebrafish [2]
  effect on motor activity in the PMR: elevated activity in all PMR phases

## CN1C(=O)CN=C(c2ccccc2)c2cc(Cl)ccc21 [diazepam]
Embryonic zebrafish [2]
  effect on motor activity in the PMR: decreased activity
Embryonic zebrafish [2]; listed as Diazepam
  effect on motor activity in the PMR: reduces motor activity

## CC(=O)CC(c1ccccc1)c1c(O)c2ccccc2oc1=O (stereo not drawn) [warfarin]
Embryonic zebrafish [2]; increased PMR excitation magnitude and duration, warfarin at 10 μM
  PMR magnitude stimulant (MAG) phenotype: do not produce a MAG phenotype
MAO—B
  inhibition of MAO activity: nor inhibit MAO activity

## COP(=S)(OC)SCn1nnc2ccccc2c1=O [azinphos methyl]
Embryonic zebrafish [2]; compared to untreated controls
  paralysis in zebrafish: caused paralysis in zebrafish
Embryonic zebrafish [2]
  effect on PMR excitation phase (motor response to the first stimulus): reduced levels of PMR excitation

## O=C(CCCN1C(=O)c2ccccc2C1=O)N1CCCCCC1 [STR—1]
Embryonic zebrafish [1]
  phenotype in the ETR assay: slow—to—relax (STR) phenotype

## C[n+]1ccccc1C=NO [pralidoxime]
Embryonic zebrafish [2]
  suppression of AzMet behavioral effects (PMR excitation): counteracted the behavioral effects of AzMet
